{"source": "patent US10974081B2", "about": "“Treatment and prevention of sleep disorders” (Purdue Pharma L.P., priority 2016, dated 2021)", "key": {"[1]": {"test": "Free unbound compound fraction, equilibrium dialysis of rat serum", "type": "in vitro ADME", "details": "male, Crl:CD (SD), rat, rat serum; 2 μg/mL, 24 hours dialysis at 37° C.", "method": "The extent of in vitro binding of Compound (1F) or W-212393 to rat serum was determined as an assessment of the availability of free unbound compound for modulating receptor activity according to a procedure disclosed in, e.g., Example 15 of U.S. Pat. No. 9,290,488, which is hereby incorporated by reference in its entirety. Serum from rats containing a tested compound in one chamber of a dialysis cell was dialyzed with phosphate buffered saline (“PBS”) in the other chamber; thereafter, the supernatant from each chamber was analyzed for the concentration of the tested compound present. […] The final concentration of each tested compound in the serum sample was adjusted to 2 μg/mL by adding an appropriate volume of PBS. A cell suitable for equilibrium dialysis was used in the determinations. A SPECTRA/POR dialysis membrane (with molecular mass cutoff of 12,000-14,000 Da, Spectrum Laboratories, Inc., Rancho Dominguez, Calif.) separated the dialysis cell into two chambers. A 500 μL aliquot of the serum sample containing a tested compound was applied to one chamber (serum chamber) of the dialysis cell. A 500 μL aliquot of PBS was applied to the other chamber (PBS chamber) of the dialysis cell. The dialysis study was conducted in duplicate for each tested compound. After 24 hours of equilibrium dialysis at 37° C., 30 μL of liquid from the serum chamber of the dialysis cell was collected and to this was added 270 μL of fresh PBS (this combination was designated Sample “A”). Then, 270 μL of liquid from the PBS chamber of the dialysis cell was collected and to this was added 30 μL of control rat serum (i.e., rat serum never exposed to any test compound, this combination was designated Sample “B”). […] Each supernatant was analyzed by LC-MS-MS. […] Thereafter, the percentage of free unbound tested compound was calculated from the ratio of the tested compound amount determined from Sample B divided by the sum of the tested compound amounts determined from Sample A and Sample B."}, "[2]": {"test": "in vivo", "details": "male, Crl, CD(SD), rat, brain homogenate and plasma, iv, 0.5 mg/kg"}, "[3]": {"system": "human liver microsomes", "test": "In vitro metabolic stability, human liver microsomes", "type": "in vitro ADME", "details": "2 μM, % remaining after 30 minutes at 37° C.", "method": "The comparative in vitro metabolic stabilities of Compounds (1F), […], and W-212393 were determined upon exposure to human liver microsomes or rat liver microsomes according to a procedure disclosed in, e.g., Example 14 of U.S. Pat. No. 9,290,488, which is hereby incorporated by reference in its entirety. Liver microsomes from Crj;CD rats or humans were incubated with 2 μM of each tested compound; thereafter, the supernatant was analyzed by HPLC-MS for the concentration of the tested compound present. Human liver microsomes, pooled, 20 mg/mL, were obtained from […] #H0610). […] Alternatively and if desired, rat liver microsomes can be obtained commercially from, e.g., XenoTech (Sprague-Dawley rat liver microsomes, pooled, 20 mg/mL, cat #R1000). β-NADPH (β-nicotinamide adenine dinucleotide 2'-phosphate reduced tetrasodium salt hydrate) was obtained from Oriental Yeast Co., Ltd. (Tokyo, Japan). Each tested compound, present at an initial concentration of 2 μM, was incubated at 37° C. in the presence of 0.5 mg/mL of either human microsomes or rat microsomes in suspension in 50 mM Tris-HCl buffer (7.4 pH), 150 mM KCl, 10 mM MgCl2, and 1 mM β-NADPH. Incubation was initiated upon the addition of a 100-fold concentrated solution of the tested compound to one of the microsome preparations. Incubation was terminated by addition of a two-fold volume of a 1/1 mixture of acetonitrile/methanol after either 0 minutes or 30 minutes of incubation at 37° C. Thereafter, proteins and other macromolecules from the microsome preparation were removed by centrifugation. All incubations were conducted in duplicate. […] The HPLC system consisted of a Waters 2795 separations module (Waters Corp., Milford, Mass.) equipped with an inline degasser, temperature controlled auto-sampler, and column oven. The analytical column was a Waters […], 2.1 mm×20 mm column. The mass analyzer was a Waters ZQ, single quadrupole mass spectrometer equipped with an electrospray ionization source operating in the positive ionization mode and utilizing a stainless steel spray capillary. […]"}, "[4]": {"test": "in vivo", "details": "male, Crl:CD(SD), rat, po, no-observed-adverse-effect-level (NOAEL)"}, "[5]": {"system": "rats", "test": "EEG/EMG sleep-wake analysis, single administration compared to zolpidem", "type": "in vivo, rat"}, "[6]": {"system": "rats"}}, "note": "Where two headings read alike, the source gives them in different places.", "data": [{"smiles": "CNC(=O)Cn1c(=O)n(C2CCN([C@@H]3Cc4cccc5cccc3c45)CC2)c2ccccc21", "note": "[Compound W-212393]", "values": [{"measurement": "fraction unbound at 24 h, 2 μg/mL", "setting": "[1]", "result": "< 0.001"}, {"measurement": "Kp at 0.5 h", "setting": "[2]", "result": 0.5}, {"measurement": "Human Metabolic Stability (%)", "setting": "[3]", "result": 27.3, "unit": "%"}, {"measurement": "brain penetration relative to average of Compound (1C)", "setting": "0.5/0.033", "result": "at least 15 times"}, {"measurement": "brain penetration relative to maximum value of Compound (1C)", "setting": "0.5/0.040", "result": "at least 13 times"}]}, {"smiles": "O=C(O)c1nc2ccccc2n([C@H]2C[C@H]3CCC[C@@H](C2)N3C2CC3CCCC(C3)C2)c1=O", "note": "(some centres unmarked) [Compound (1D)]", "values": [{"measurement": "NOAEL", "setting": "[4]", "result": 600, "unit": "mg/kg"}, {"measurement": "effect on percentage of time spent in REM sleep", "setting": "[5]; 10 mg/kg oral (FIG. 13B)", "result": "no significant effects"}, {"measurement": "percentage of time spent in wakefulness versus vehicle", "setting": "[5]; 10 mg/kg oral, 1 hour blocks at 2, 5, and 8 hours after dosing (FIG. 13A)", "result": "lower"}, {"measurement": "percentage amounts of wakefulness, REM sleep, and NREM sleep", "setting": "[5]; 10 mg/kg oral, 3 hour blocks (FIGS. 14A-14C)", "result": "no significant changes"}, {"measurement": "percentage of time spent in NREM sleep versus vehicle", "setting": "[5]; 10 mg/kg oral, at 2, 5, and 8 hours after dosing (FIG. 13C)", "result": "higher"}, {"measurement": "percentage of time spent in wakefulness versus vehicle", "setting": "[5]; 10 mg/kg oral, at 6 and 15 hours after dosing (FIG. 13A)", "result": "significantly increased"}, {"measurement": "percentage of time spent in NREM sleep versus vehicle", "setting": "[5]; 10 mg/kg oral, at 6 and 15 hours after dosing (FIG. 13C)", "result": "significantly decreased"}, {"measurement": "effect on percentage of time spent in REM sleep", "setting": "[5]; 100 mg/kg oral (FIG. 15B, 16B)", "result": "no significant effects"}, {"measurement": "percentage amount of NREM sleep versus vehicle", "setting": "[5]; 100 mg/kg oral, 3 hour blocks 0-3, 3-6, 6-9, and 15-18 hours (FIG. 16C)", "result": "significant decreases"}, {"measurement": "percentage amount of wakefulness versus vehicle", "setting": "[5]; 100 mg/kg oral, 3 hour blocks 0-3, 3-6, and 15-18 hours (FIG. 16A)", "result": "significant increases"}, {"measurement": "percentage of time spent in NREM sleep versus vehicle", "setting": "[5]; 100 mg/kg oral, at 3, 4, 5, 7, 17 and 18 hours after dosing (FIG. 15C)", "result": "significantly increased"}, {"measurement": "percentage of time spent in wakefulness versus vehicle", "setting": "[5]; 100 mg/kg oral, at 3, 5 and 17 hours after dosing (FIG. 15A)", "result": "significantly decreased"}, {"measurement": "overall sleep effect", "setting": "[5]; single 10 mg/kg oral dose", "result": "minor sleep-enhancing effects"}, {"measurement": "overall sleep effect", "setting": "[5]; single 100 mg/kg oral dose", "result": "significant sleep-enhancing effects"}, {"measurement": "overall sleep effect", "setting": "[6]; 30 mg/kg/day oral", "result": "significant sleep-enhancing effects"}, {"measurement": "tachyphylaxis over the seven day period", "setting": "[6]; 30 mg/kg/day oral for 7 days", "result": "minimal tachyphylaxis"}, {"measurement": "percentage of time spent in wakefulness", "setting": "[6]; 30 mg/kg/day oral, Day 1, 1 hour block at 4 hours after dosing (FIG. 5A)", "result": "about 52%"}, {"measurement": "percentage of time spent in NREM sleep", "setting": "[6]; 30 mg/kg/day oral, Day 1, 1 hour block at 4 hours after dosing (FIG. 5C)", "result": "about 41%"}, {"measurement": "percentage of time spent in NREM sleep", "setting": "[6]; 30 mg/kg/day oral, Day 1, 1 hour block at 5 hours after dosing (FIG. 5C)", "result": "~54", "unit": "%"}, {"measurement": "percentage of time spent in REM sleep", "setting": "[6]; 30 mg/kg/day oral, Day 1, 1 hour block at 7 hours after dosing (FIG. 5B)", "result": "about 2.5%"}, {"measurement": "total amount of wakefulness", "setting": "[6]; 30 mg/kg/day oral, Day 1, 3 hour block, 3 to 6 hours after dosing (FIG. 6A)", "result": "about 47%"}, {"measurement": "total amount of NREM sleep", "setting": "[6]; 30 mg/kg/day oral, Day 1, 3 hour block, 3 to 6 hours after dosing (FIG. 6C)", "result": "about 46%"}, {"measurement": "effect on percentage of time spent in REM sleep", "setting": "[6]; 30 mg/kg/day oral, Day 1, 3 hour blocks (FIG. 6B)", "result": "no significant effects"}, {"measurement": "effect on percentage of time spent in REM sleep", "setting": "[6]; 30 mg/kg/day oral, Day 4 (FIG. 7B, 8B)", "result": "no significant effects"}, {"measurement": "total amount of wakefulness", "setting": "[6]; 30 mg/kg/day oral, Day 4, 3 to 6 hours after dosing (FIG. 8A)", "result": "about 55%"}, {"measurement": "total amount of NREM sleep", "setting": "[6]; 30 mg/kg/day oral, Day 4, 3 to 6 hours after dosing (FIG. 8C)", "result": "about 41%"}, {"measurement": "percentage of time spent in NREM sleep", "setting": "[6]; 30 mg/kg/day oral, Day 4, 1 hour block at 4 hours after dosing (FIG. 7C)", "result": "about 42%"}, {"measurement": "effect on percentage of time spent in REM sleep", "setting": "[6]; 30 mg/kg/day oral, Day 7 (FIG. 9B, 10B)", "result": "no significant effects"}, {"measurement": "percentage of time spent in wakefulness versus vehicle", "setting": "[6]; 30 mg/kg/day oral, Day 7, lights-out period (FIG. 9A)", "result": "decreasing tendency"}, {"measurement": "percentage of time spent in NREM sleep versus vehicle", "setting": "[6]; 30 mg/kg/day oral, Day 7, lights-out period (FIG. 9C)", "result": "increased tendency"}, {"measurement": "effect on time spent in REM sleep", "setting": "[6]; Day 8 (no dosing) after 30 mg/kg/day for 7 days (FIG. 11B)", "result": "no effect"}, {"measurement": "percentage of time spent in wakefulness versus vehicle", "setting": "[6]; Day 8 (no dosing) after 30 mg/kg/day for 7 days, at 27, 35, and 46 hours (FIG. 11A)", "result": "significantly increased"}, {"measurement": "percentage of time spent in NREM sleep versus vehicle", "setting": "[6]; Day 8 (no dosing) after 30 mg/kg/day for 7 days, at 27, 35, and 46 hours (FIG. 11C)", "result": "significantly decreased"}]}]}
